Results: patent US20120010260A1, “METHOD FOR TREATING NERVOUS SYSTEM DISORDERS AND CONDITIONS” (priority 2004, published 2012)
Several values for one entry are separate records, joined by “and”; a condition that tells them apart may be missing. Equal values may be shown once.

What was measured:
[1] = tested on: Male Sprague-Dawley rats with L5/L6 spinal nerve ligation; test: Spinal nerve ligation (SNL) model of neuropathic pain, tactile hypersensitivity (von Frey); format: in vivo; conditions: rat, 30 mg/kg IP, FIG. 7
Source text: Subjects. Male Sprague-Dawley rats (Indianapolis, Ind.) weighing 150 to 200 g at time of arrival, were individually housed in wire cages in a climate-controlled room. A 12-hour light/dark cycle (lights on at 0630) was in effect, and food and water were available ad libitum.
Surgery—Spinal Nerve Ligation. Rats were anesthetized with 3.5% halothane in O2 at 1 L/min and maintained with 1.5% halothane in O2 during surgery. Ligation of the L5 and L6 nerves was produced by an incision through the left paraspinal muscles. The left L5 and L6 spinal nerves were isolated adjacent to the vertebral column and ligated tightly with 6-0 silk suture just distal to the dorsal root ganglion. […]
Assessment of tactile hypersensitivity. […] Baseline tactile sensitivity was assessed using a series of calibrated von Frey monofilaments (Stoelting; Wood Dale, Ill.) 0 to 3 days before surgery. […] The ability of a single dose of test compound to reverse established hypersensitivity was assessed using a time course procedure. […]
Results are presented as the 50% threshold values (50% threshold in g force) estimated by the Dixon non-parametric test. […] Significant main effects were analyzed further by subsequent least significant difference analysis. […]
Reversal of tactile hypersensitivity was defined as a return to baseline of the tactile sensitivity and was calculated according to the following equation: […]

[2] = tested on: ovariectomized (OVX) rats, tail skin temperature (TST); test: Telemetry rat model of ovariectomy-induced thermoregulatory dysfunction (tail skin temperature); format: in vivo; conditions: 30 mg/kg, sc; p<0.05 compared to vehicle control
Source text: This model has been modified from a previously reported protocol describing estrogen regulation of diurnal tail skin temperature (TST) patterns (Berendsen, et al., European Journal of Pharmacology, 2001, 419(1): 47-54). […] A temperature and physical activity transmitter (PhysioTel TA10TA-F40, Data Sciences International) was implanted subcutaneously in the dorsal scapular region and the tip of the temperature probe was tunneled subcutaneously 2.5 cm beyond the base of the tail. After a 7-day recovery period, TST readings were continuously recorded for the remainder of the study. Tail skin temperature readings were collected from each animal every 5 minutes with values obtained over a 10 second sampling period. The day before test day, an average baseline TST value was calculated for each animal by averaging temperature readings recorded during the 12 hour active (dark) phase. […]
Statistical analysis: Evaluation of a compound's ability to restore normal lowering of TST in the telemetry model was analyzed using hourly TST values calculated for each animal by averaging the 12 temperature readings obtained every 5 minutes over that recording time. […]
The effect of test compound is measured by evaluating the following parameters in this model: onset of action, duration of effect on TST, maximal change in TST and mean change in TST over the duration of the compound effect.

[3] = biological target: T1, human dopamine transporter (hDAT) (Homo sapiens, UniProt Q01959); test: Dopamine transporter (hDAT) membrane binding assay, 3H-WIN 35,428
T1 construct: purchased Perkin Elmer RBHDATM

[4] = biological target: T2, human serotonin transporter (hSERT) (Homo sapiens, UniProt P31645); test: Serotonin (5-HT) uptake assay (hSERT function uptake) in JAR cells; format: cell-based; conditions: [3H]5-HT uptake
T2 construct: cells were stimulated with staurosporine (40 nM) to increase the expression of the 5-HT transporter; host or cells: JAR (human placental choriocarcinoma)
Experimental: The methods for 5-HT functional reuptake using the JAR cell line were modified using a previous literature report. […] On day 2, cells were stimulated with staurosporine (40 nM) to increase the expression of the 5-HT transporter. On day 3, cells were removed from the cell incubator two hours prior to assay and maintained at room temperature to equilibrate the growth medium to ambient oxygen concentration. […] Twenty-five microliters of assay buffer (maximum 5-HT uptake) or test compound were added directly to triplicate wells containing cells in 200 μl of assay buffer. The cells were incubated with the compound for 10 minutes (37° C.). […] The cells were incubated with the reaction mixture for 5 minutes at 37° C. The 5-HT uptake reaction was terminated by decanting the assay buffer.

[5] = biological target: human norepinephrine transporter (hNET) (Homo sapiens, UniProt P23975); conditions: read-out: hNET function uptake (EC50 in nm); MDCK-Net6 cells, [3H]NE uptake
Sequence of human norepinephrine transporter (hNET) (P23975 whole entry): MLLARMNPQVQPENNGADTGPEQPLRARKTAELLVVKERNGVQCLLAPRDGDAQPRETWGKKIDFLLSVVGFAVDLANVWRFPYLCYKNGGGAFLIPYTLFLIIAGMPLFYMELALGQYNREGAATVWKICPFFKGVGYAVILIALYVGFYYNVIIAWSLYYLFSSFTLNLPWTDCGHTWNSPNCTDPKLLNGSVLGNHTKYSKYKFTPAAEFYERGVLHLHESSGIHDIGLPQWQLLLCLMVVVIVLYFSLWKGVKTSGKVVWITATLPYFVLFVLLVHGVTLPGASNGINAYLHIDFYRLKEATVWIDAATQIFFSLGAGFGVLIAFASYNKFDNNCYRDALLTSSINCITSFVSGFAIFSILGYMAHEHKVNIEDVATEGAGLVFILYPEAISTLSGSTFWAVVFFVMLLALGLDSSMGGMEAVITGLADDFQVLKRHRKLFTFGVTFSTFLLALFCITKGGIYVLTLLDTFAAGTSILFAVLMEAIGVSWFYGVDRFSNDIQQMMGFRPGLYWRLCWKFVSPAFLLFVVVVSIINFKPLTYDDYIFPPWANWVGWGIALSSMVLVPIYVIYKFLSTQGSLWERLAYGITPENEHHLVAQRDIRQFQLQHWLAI

T1 sequence (Q01959 whole entry): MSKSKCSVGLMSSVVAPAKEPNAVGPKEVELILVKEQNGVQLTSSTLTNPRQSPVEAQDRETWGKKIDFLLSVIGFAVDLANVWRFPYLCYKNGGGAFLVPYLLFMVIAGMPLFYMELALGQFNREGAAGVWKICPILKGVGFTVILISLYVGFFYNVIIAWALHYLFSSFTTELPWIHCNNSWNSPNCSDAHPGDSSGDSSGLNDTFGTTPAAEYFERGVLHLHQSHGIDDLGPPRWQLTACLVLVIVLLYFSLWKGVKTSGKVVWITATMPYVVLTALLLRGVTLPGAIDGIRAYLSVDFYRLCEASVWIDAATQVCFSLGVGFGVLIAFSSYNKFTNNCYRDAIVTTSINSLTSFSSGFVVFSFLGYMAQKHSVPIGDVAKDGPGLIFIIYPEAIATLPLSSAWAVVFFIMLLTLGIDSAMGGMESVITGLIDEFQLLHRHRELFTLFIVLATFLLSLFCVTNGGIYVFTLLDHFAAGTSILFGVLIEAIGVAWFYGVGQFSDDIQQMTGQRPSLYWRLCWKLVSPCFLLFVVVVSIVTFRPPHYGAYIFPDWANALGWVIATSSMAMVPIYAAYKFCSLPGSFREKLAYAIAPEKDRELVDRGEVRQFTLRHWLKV
T2 sequence (P31645 whole entry): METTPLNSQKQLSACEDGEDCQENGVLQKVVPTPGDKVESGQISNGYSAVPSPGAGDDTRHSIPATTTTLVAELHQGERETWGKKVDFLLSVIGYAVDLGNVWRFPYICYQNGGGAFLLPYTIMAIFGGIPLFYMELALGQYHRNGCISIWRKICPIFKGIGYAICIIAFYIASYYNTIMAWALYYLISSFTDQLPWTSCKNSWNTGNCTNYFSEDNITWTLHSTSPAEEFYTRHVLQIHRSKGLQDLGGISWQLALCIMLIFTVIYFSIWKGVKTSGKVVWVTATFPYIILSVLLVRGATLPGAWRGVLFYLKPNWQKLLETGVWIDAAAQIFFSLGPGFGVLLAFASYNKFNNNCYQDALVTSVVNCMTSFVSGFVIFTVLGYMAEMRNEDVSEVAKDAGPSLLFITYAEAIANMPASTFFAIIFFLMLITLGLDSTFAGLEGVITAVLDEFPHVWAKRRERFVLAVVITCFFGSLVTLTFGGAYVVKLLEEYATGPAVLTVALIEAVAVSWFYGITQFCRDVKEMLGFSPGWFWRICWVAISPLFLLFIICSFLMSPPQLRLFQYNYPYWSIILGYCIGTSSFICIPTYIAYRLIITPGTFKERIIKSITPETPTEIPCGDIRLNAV

| Compound | Reversal of tactile allodynia in the SNL neuropathic pain model [1] | Restoration of normal TST in OVX-induced thermoregulatory dysfunction telemetry model [2] | hDAT binding (% I at 1 μM) ([3]; 1 μM) [% I] | hDAT binding (% I at 10 μM) [3] | EC50 [4] [µM] | EC50 [5] [µM] |
| --- | --- | --- | --- | --- | --- | --- |
| Clc1ccc(C23CNCC2C3)cc1Cl (racemic) [Racemic 1-(3,4-dichlorophenyl)-3-azabicyclo[3.1.0]hexane, 1-(3,4-dichlorophenyl)-3-azabicyclo[3.1.0]hexane] | significantly reverses tactile allodynia | – | – | – | – | – |
| Cc1ccc(C23CNCC2C3)cc1 (racemic) [Racemic 1-(4-methylphenyl)-3-azabicyclo[3.1.0]hexane, 1-(4-methylphenyl)-3-azabicyclo[3.1.0]hexane] | – | restores normal TST | 26.5 | 45 % I and 52.1 % I | – | – |
| Cc1ccc(C23CNCC2C3)cc1 (single isomer, unassigned; (+)) [(+)-1-(4-methylphenyl)-3-azabicyclo[3.1.0]hexane] | – | restores normal TST | – | 51 % I | 7.35 | 0.148 |
